From ChEMBL document CHEMBL3045678, “Synthesis of Some New Antimicrobial Thiadiazolyl and Oxadiazolyl Quinoline Derivatives” (2005)
In brackets after ≈: the same amount, converted by molar mass. Activity calls are given as the source filed them. The rule behind the calls is not given here.

Legend:
Type in all cases: functional
[1] = tested on: Candida albicans; test: Antimicrobial activity against Candida albicans ATCC 10231 at 1 mg/ml after 24 hr by cup diffusion technique; settings: for zone of inhibition at 1000 µg/mL: ATCC 10231, 24 h, read-out: DIZ
[2] = tested on: Escherichia coli; test: Antimicrobial activity against Escherichia coli NCTC 10418 at 1 mg/ml after 24 hr by cup diffusion technique; settings: for zone of inhibition at 1000 µg/mL: NCTC 10418, 24 h, read-out: DIZ
[3] = tested on: Staphylococcus aureus; test: Antimicrobial activity against Staphylococcus aureus ATCC 6538p at 1 mg/ml after 24 hr by cup diffusion technique; settings: for zone of inhibition at 1000 µg/mL: read-out: DIZ
[4] = tested on: Pseudomonas aeruginosa; test: Antimicrobial activity against Pseudomonas aeruginosa ATCC 9027 at 1 mg/ml after 24 hr by cup diffusion technique; settings: for zone of inhibition at 1000 µg/mL: ATCC 9027, 24 h, read-out: DIZ
[5] = tested on: Pseudomonas aeruginosa; test: Antimicrobial activity against Pseudomonas aeruginosa ATCC 9027 after 24 hr by two-fold dilution method; settings: ATCC 9027, 24 h
[6] = tested on: Candida albicans; test: Antimicrobial activity against Candida albicans ATCC 10231 after 48 hr by two-fold dilution method
[7] = tested on: Staphylococcus aureus; test: Antimicrobial activity against Staphylococcus aureus ATCC 6538p after 24 hr by two-fold dilution method

Row | Compound | zone of inhibition at 1000 µg/mL [1] [mm] | zone of inhibition at 1000 µg/mL [2] [mm] | zone of inhibition at 1000 µg/mL [3] [mm] | zone of inhibition at 1000 µg/mL [4] [mm] | further results
1 | CCSc1nnc(-c2cc(C)nc3ccccc23)o1 | 19 | 19 | 15 | – | diameter of the inhibition zone (DIZ) [4]: inactive
2 | CCSc1nnc(NC(=O)c2cc(-c3ccccc3)nc3ccccc23)s1 | 18 | 19 | 15 | 20 | MBC [5]: 500 µg/mL (≈ 1270 µM); MIC [5]: 62.5 µg/mL (≈ 159 µM)
3 | O=S(=O)(Cc1ccccc1)c1nnc(-c2cc(-c3ccccc3)nc3ccccc23)o1 | 19 | 18 | 12 | – | diameter of the inhibition zone (DIZ) [4]: inactive
4 | CCS(=O)(=O)c1nnc(-c2cc(C)nc3ccccc23)o1 | 24 | 19 | 16 | 16 | MBC ([6]; ATCC 10231, 48 h): 125 µg/mL (≈ 412 µM); MIC ([6]; ATCC 10231, 48 h): 125 µg/mL (≈ 412 µM)
5 | O=C(Nc1nnc(SCc2ccccc2)s1)c1ccnc2ccccc12 | 19 | 18 | 15 | 17 | –
6 | CSc1nnc(-c2cc(-c3ccccc3)nc3ccccc23)o1 | 18 | 18 | 12 | 13 | –
7 | CCS(=O)(=O)c1nnc(NC(=O)c2ccnc3ccccc23)s1 | 19 | 19 | 20 | 20 | MBC [7]: > 500 µg/mL; MIC [7]: 125 µg/mL (≈ 359 µM); MBC [5]: 125 µg/mL (≈ 359 µM); MIC [5]: 125 µg/mL (≈ 359 µM)
8 | Cc1cc(C(=O)Nc2nnc(SCc3ccccc3)s2)c2ccccc2n1 | 24 | 18 | 15 | 17 | MBC ([6]; ATCC 10231, 48 h): 250 µg/mL (≈ 637 µM); MIC ([6]; ATCC 10231, 48 h): 250 µg/mL (≈ 637 µM)
9 | Cc1cc(-c2nnc(S(C)(=O)=O)o2)c2ccccc2n1 | 27 | 18 | 19 | 13 | MBC ([6]; ATCC 10231, 48 h): 125 µg/mL (≈ 432 µM); MIC ([6]; ATCC 10231, 48 h): 31.2 µg/mL (≈ 108 µM)
10 | CCSc1nnc(NC(=O)c2cc(C)nc3ccccc23)s1 | 18 | 18 | 17 | 14 | –
11 | CCSc1nnc(-c2cc(-c3ccccc3)nc3ccccc23)o1 | 19 | 18 | – | 15 | diameter of the inhibition zone (DIZ) [3]: inactive
12 | Cc1cc(C(=O)Nc2nnc(S(=O)(=O)Cc3ccccc3)s2)c2ccccc2n1 | 19 | 19 | 28 | 13 | MBC [7]: > 500 µg/mL; MIC [7]: 62.5 µg/mL (≈ 147 µM)
13 | CSc1nnc(NC(=O)c2ccnc3ccccc23)s1 | 19 | 18 | 17 | 15 | –
14 | CCS(=O)(=O)c1nnc(-c2cc(-c3ccccc3)nc3ccccc23)o1 | 18 | 17 | 18 | 13 | –
15 | Cc1cc(-c2n[nH]c(=S)o2)c2ccccc2n1 | 18 | 18 | 20 | 12 | MBC [7]: > 500 µg/mL; MIC [7]: 62.5 µg/mL (≈ 257 µM)
16 | O=C(Nc1nnc(SCc2ccccc2)s1)c1cc(-c2ccccc2)nc2ccccc12 | 18 | 16 | 13 | 15 | –

Row | Compound | zone of inhibition at 1000 µg/mL [1] [mm] | zone of inhibition at 1000 µg/mL [2] [mm] | zone of inhibition at 1000 µg/mL [3] [mm] | zone of inhibition at 1000 µg/mL [4] [mm] | further results
17 | CCSc1nnc(NC(=O)c2ccnc3ccccc23)s1 | 17 | 17 | 15 | 14 | –
18 | O=C(Nc1nnc(S(=O)(=O)Cc2ccccc2)s1)c1ccnc2ccccc12 | 19 | 18 | 27 | 20 | MBC [7]: 500 µg/mL (≈ 1220 µM); MIC [7]: 125 µg/mL (≈ 305 µM); MBC [5]: > 500 µg/mL; MIC [5]: 62.5 µg/mL (≈ 152 µM)
19 | CS(=O)(=O)c1nnc(NC(=O)c2cc(-c3ccccc3)nc3ccccc23)s1 | 19 | 18 | 30 | 15 | MBC [7]: 31.2 µg/mL (≈ 76.1 µM); MIC [7]: 31.2 µg/mL (≈ 76.1 µM)
20 | O=C(O)c1cn(C2CC2)c2cc(N3CCNCC3)c(F)cc2c1=O [CIPROFLOXACIN] | – | 30 | 25 | 40 | diameter of the inhibition zone (DIZ) [1]: inactive; MIC [7]: 2 µg/mL (≈ 6.04 µM); MIC [5]: 4 µg/mL (≈ 12.1 µM)
21 | NYSTATIN | – | – | – | – | inhibition zone (IZ) [1]: 37 mm; diameter of the inhibition zone (DIZ) [2]: inactive; MIC [6]: 25 µg/mL; diameter of the inhibition zone (DIZ) [3]: inactive; diameter of the inhibition zone (DIZ) [4]: inactive
22 | Cc1cc(-c2nnc(S(=O)(=O)Cc3ccccc3)o2)c2ccccc2n1 | 19 | 18 | 16 | – | diameter of the inhibition zone (DIZ) [4]: inactive
23 | Cc1cc(-c2nnc(SCc3ccccc3)o2)c2ccccc2n1 | 19 | 18 | 13 | – | diameter of the inhibition zone (DIZ) [4]: inactive
24 | CSc1nnc(-c2cc(C)nc3ccccc23)o1 | 26 | 17 | 17 | 13 | MBC ([6]; ATCC 10231, 48 h): 125 µg/mL (≈ 486 µM); MIC ([6]; ATCC 10231, 48 h): 125 µg/mL (≈ 486 µM)
25 | O=C(Nc1nnc(S(=O)(=O)Cc2ccccc2)s1)c1cc(-c2ccccc2)nc2ccccc12 | 18 | 19 | 20 | 14 | MBC [7]: 500 µg/mL (≈ 1030 µM); MIC [7]: 500 µg/mL (≈ 1030 µM)
26 | CS(=O)(=O)c1nnc(NC(=O)c2ccnc3ccccc23)s1 | 19 | 18 | 13 | 13 | –
27 | CCS(=O)(=O)c1nnc(NC(=O)c2cc(C)nc3ccccc23)s1 | 18 | 17 | 13 | 13 | –
28 | c1ccc(CSc2nnc(-c3cc(-c4ccccc4)nc4ccccc34)o2)cc1 | 18 | 18 | 13 | – | diameter of the inhibition zone (DIZ) [4]: inactive
29 | CSc1nnc(NC(=O)c2cc(-c3ccccc3)nc3ccccc23)s1 | 18 | 16 | 15 | 20 | MBC [5]: > 500 µg/mL; MIC [5]: 250 µg/mL (≈ 661 µM)
30 | CS(=O)(=O)c1nnc(-c2cc(-c3ccccc3)nc3ccccc23)o1 | 18 | 18 | 20 | 15 | –
31 | CCS(=O)(=O)c1nnc(NC(=O)c2cc(-c3ccccc3)nc3ccccc23)s1 | 19 | 19 | 31 | 15 | MBC [7]: 125 µg/mL (≈ 294 µM); MIC [7]: 125 µg/mL (≈ 294 µM)
